Assays:
[1] = target: T1, Tryptophan 2,3-dioxygenase (Homo sapiens, UniProt P48775); assay: Inhibition of TDO in human U87 MG cells using L-Trp as substrate after 8 hrs; format: cell-based, U-87MG ATCC
[2] = target: T1, Tryptophan 2,3-dioxygenase; assay: Inhibition of TDO (unknown origin) expressed in HEK293 cells using L-Trp as substrate after 8 hrs; format: cell-based
[3] = target: T1, Tryptophan 2,3-dioxygenase; assay: Inhibition of recombinant full length C-terminal His-tagged human TDO expressed in Escherichia coli using L-Trp as substrate after 30 mins
[4] = target: T1, Tryptophan 2,3-dioxygenase; assay: Uncompetitive inhibition of recombinant full length C-terminal His-tagged human TDO expressed in Escherichia coli using L-Trp as substrate after 30 mins by Dixon plot analysis
[5] = target: T1, Tryptophan 2,3-dioxygenase; assay: Mixed type […] inhibition of recombinant full length C-terminal His-tagged human TDO expressed in Escherichia coli using L-Trp as substrate after 30 mins by Dixon plot analysis
Homo sapiens = species: Homo sapiens; assay: Selectivity ratio of IC50 for IDO1 (unknown origin) to IC50 for recombinant full length C-terminal His-tagged human TDO
[6] = target: T1, Tryptophan 2,3-dioxygenase; assay: Inhibition of TDO (unknown origin)
[7] = target: Indoleamine 2,3-dioxygenase 1 (Homo sapiens, UniProt P14902); assay: Inhibition of IDO1 (unknown origin)
Sequence of Indoleamine 2,3-dioxygenase 1 (P14902 whole entry): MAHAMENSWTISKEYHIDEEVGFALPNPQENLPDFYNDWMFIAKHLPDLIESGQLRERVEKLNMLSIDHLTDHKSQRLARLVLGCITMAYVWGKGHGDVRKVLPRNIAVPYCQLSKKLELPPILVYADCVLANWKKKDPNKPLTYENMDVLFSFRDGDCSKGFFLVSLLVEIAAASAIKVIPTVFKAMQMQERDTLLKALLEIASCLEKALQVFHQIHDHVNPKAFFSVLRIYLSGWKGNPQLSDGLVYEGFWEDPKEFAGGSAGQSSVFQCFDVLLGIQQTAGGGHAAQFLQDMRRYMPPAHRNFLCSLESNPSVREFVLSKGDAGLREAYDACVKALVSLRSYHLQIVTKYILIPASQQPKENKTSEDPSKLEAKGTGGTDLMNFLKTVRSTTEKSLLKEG

T1 sequence (P48775 whole entry): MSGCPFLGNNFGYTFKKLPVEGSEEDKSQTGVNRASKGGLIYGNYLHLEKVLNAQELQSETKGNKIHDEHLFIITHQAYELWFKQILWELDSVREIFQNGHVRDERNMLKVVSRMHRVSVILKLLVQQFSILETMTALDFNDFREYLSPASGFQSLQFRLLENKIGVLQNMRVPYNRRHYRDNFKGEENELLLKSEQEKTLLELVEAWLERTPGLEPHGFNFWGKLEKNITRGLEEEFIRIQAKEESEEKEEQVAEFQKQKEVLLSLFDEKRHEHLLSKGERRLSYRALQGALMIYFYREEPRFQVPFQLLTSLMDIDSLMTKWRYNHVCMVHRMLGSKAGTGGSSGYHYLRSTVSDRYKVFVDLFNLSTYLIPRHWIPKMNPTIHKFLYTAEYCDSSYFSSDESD

| SMILES | IC50 [1] [µM] | IC50 [2] [µM] | IC50 [3] [µM] | Ki [4] [µM] | Ki [5] [µM] | Ratio IC50 (Homo sapiens) | Ki [6] [µM] | Ki [7] [µM] |
| --- | --- | --- | --- | --- | --- | --- | --- | --- |
| O=C1c2ccccc2-n2c1nc1ccccc1c2=O [TRYPTANTHRIN] | 0.194 | 0.14 | 3.94 | 0.581 |  |  |  |  |
| Cc1ccc2c(c1)C(=O)c1nc3ccccc3c(=O)n1-2 | 0.184 | 0.215 | 3.23 |  | 0.834 | 38 |  |  |
| NS(=O)(=O)NCCNc1nonc1C(=NO)Nc1ccc(F)c(Br)c1 [EPACADOSTAT] | 0.26 | 0.242 | 64.5 | 21.7 |  |  |  |  |
| O=C1c2cc(O)c(O)cc2OC(c2ccc(O)c(O)c2)C1O (centres undefined) |  |  |  |  |  |  | 16 | > 100 |
| O=C1c2cc(F)ccc2-n2c1nc1ccccc1c2=O | 0.06 | 0.068 | 0.937 | 0.336 |  |  |  |  |
| O=C1c2cc(F)ccc2-n2c1nc1ccc(F)cc1c2=O | 0.062 | 0.059 | 1.49 |  | 1 |  |  |  |
| O=C1c2cc(Br)ccc2-n2c1nc1ccccc1c2=O | 0.054 | 0.053 | 0.937 | 0.356 |  |  |  |  |
| O=C1c2c(Cl)cccc2-n2c1nc1ccccc1c2=O | 0.227 | 0.229 | 44.8 | 8.41 |  |  |  |  |
| O=C1c2ccc(Cl)cc2-n2c1nc1ccccc1c2=O | 0.957 | 0.733 | 224 |  | 42.7 |  |  |  |
| O=C1c2cc([N+](=O)[O-])ccc2-n2c1nc1ccccc1c2=O | 0.04 | 0.061 | 0.101 | 0.215 |  |  |  |  |
| O=C1c2ccccc2-n2c1nc1ccc(F)cc1c2=O | 0.503 | 0.241 | 9.81 |  | 0.876 | 88 |  |  |
